One may read the IC50 as the midpoint of a concentration-inhibition curve. The low end stands for greater potency, the high end for weaker potency. As a reminder, the melting point is the temperature of the solid-liquid transition.

The text below walks through data of paper PMC5514901, “Synthesis and evaluation of anthranilamide-based derivatives as FXa inhibitors” (Oncotarget, 2017).

The target in one data set is T1, human FXa (Homo sapiens, UniProt P00742).
T1 construct: purchased Hyphen BioMed
T1 sequence (P00742 235-488 limits assumed): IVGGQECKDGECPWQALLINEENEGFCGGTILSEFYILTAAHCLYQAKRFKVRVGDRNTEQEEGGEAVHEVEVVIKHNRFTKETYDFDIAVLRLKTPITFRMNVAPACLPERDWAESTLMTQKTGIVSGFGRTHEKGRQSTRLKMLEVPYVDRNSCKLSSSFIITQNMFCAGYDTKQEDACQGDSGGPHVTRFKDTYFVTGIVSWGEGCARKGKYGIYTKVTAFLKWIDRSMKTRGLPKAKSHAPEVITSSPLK
T1 sequence (P00742 41-179 partner limits assumed): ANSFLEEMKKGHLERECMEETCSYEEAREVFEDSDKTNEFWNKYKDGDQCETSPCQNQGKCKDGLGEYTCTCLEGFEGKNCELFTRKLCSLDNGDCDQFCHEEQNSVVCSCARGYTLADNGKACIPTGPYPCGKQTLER
Kind of data set: Inhibition activity measurement against FXa (chromogenic substrate CS-11(22)). In kind it is biochemical. Conditions: for FXa inhibitory activity (in words): SAR statement in text; for IC50: human FXa, chromogenic substrate, 37°C, read at 405 nm. On the procedure: The inhibition of FXa was measured using human FXa (Hyphen BioMed, city, Paris, FRA) and chromogenic substrate CS-11(22) (Hyphen BioMed, Paris, FRA) in 384-well microtiter plates at room temperature. […] 2 μL of FXa (56.8 nM), 16 μL of Tris buffer (adjust to pH 7.4 with HCl containing 0.3 M NaCl and 50 mM Tris) and 3 μL of test compound were added to the well, respectively. The negative control was composed of the same mixed solutions except replacing test compound with DMSO. […] After incubated at 37°C for 5 min, 8 μL of FXa substrate solution (3.5 mM) was added and then incubated at 37°C for 25 min. The FXa activity was measured at 405 nm using a SpectraMax M5 (Molecular Devices, Sunnyvale, CA, USA). The IC50 was calculated by the software named SPSS (IBM, North Castle, NY, USA) and the Probit function in it.

The structures appear in SMILES notation. Where only a bound is given, the exact number is not on record here.

With `Cc1cccc(C(=O)Nc2ccc(-n3ccccc3=O)cc2)c1NC(=O)c1ccc(Br)s1` [6a-c, 5-bromo-N-(2-methyl-6-((4-(2-oxopyridin-1(2H)-yl)ph-enyl)carbamoyl)phenyl)thiophene-2-carboxamide], the melting point is > 250 °C. Further, at human FXa, the “FXa inhibitory activity (in words)” value was “poor IC50 values at a micromole level” and the half-inhibitory concentration (IC50) was > 1000 nM.
Take `O=C(Nc1ccccc1C(=O)Nc1ccc(N2CCOCC2=O)cc1)c1ccc(Cl)cc1Cl` [6k-d, 2,4-dichloro-N-(2-((4-(3-oxomorpholino)phenyl)carba-moyl)phenyl)benzamide]: the melting point was > 250 °C. The molecule further yielded a half-inhibitory concentration (IC50) against human FXa of 128 nM.
For `Cc1cccc(C(=O)Nc2ccc(-n3ccccc3=O)cc2)c1NC(=O)c1ccc(Cl)nc1` [6h-c, 6-chloro-N-(2-methyl-6-((4-(2-oxopyridin-1(2H)-yl)ph-enyl)carbamoyl)phenyl)nicotinamide], in that order: > 250 °C and > 1000 nM.
Turning to `Cc1cccc(C(=O)Nc2ccc(N3CCOCC3=O)cc2)c1NC(=O)c1ccc(Cl)cc1Cl` [6k-g, 2-(2,4-dichlorobenzamido)-3-methyl-N-(4-(3-oxomor-pholino)phenyl)benzamide], the melting point is > 250 °C. In addition, on human FXa, the “FXa inhibitory activity (in words)” value is recorded as “poor IC50 values at a micromole level” and the IC50 is > 1000 nM.
Regarding `COc1cc(C(=O)Nc2ccccc2C(=O)Nc2ccc(-n3ccccc3=O)cc2)cc(OC)c1OC` [6n, 3,4,5-trimethoxy-N-(2-((4-(2-oxopyridin-1(2H)-yl)phenyl)carbamoyl)phenyl)benzamide], the melting point is > 250 °C. The IC50 against human FXa was > 1000 nM.
For `COc1ccc(C(=O)Nc2ccc(Cl)cc2C(=O)Nc2ccc(N3CCOCC3=O)cc2)cc1` [6l-e, 5-chloro-2-(4-methoxybenzamido)-N-(4-(3-oxomorph-olino)phenyl)benzamide], in that order: > 250 °C and 485 nM.
The like results for `COc1ccc(C(=O)Nc2ccccc2C(=O)Nc2ccc(N3CCOCC3=O)cc2)cc1` [6l-d, 2-(4-methoxybenzamido)-N-(4-(3-oxomorpholino)phe-nyl)benzamide] were, in that order, > 250 °C and 459 nM.
The like results for `O=C(Nc1ccccc1C(=O)Nc1ccc(-n2ccccc2=O)cc1)c1cc(F)c(F)c(F)c1` [6j, 3,4,5-trifluoro-N-(2-((4-(2-oxopyridin-1(2H)-yl)phenyl)arbamoyl)phenyl)benzamide] were, in that order, > 250 °C and > 1000 nM.
Regarding `Cc1cccc(C(=O)Nc2ccc(-n3ccccc3=O)cc2)c1NC(=O)c1ccc(Cl)cc1Cl` [6k-c, 2-(2,4-dichlorobenzamido)-3-methyl-N-(4-(2-oxopyrid-in-1(2H)-yl)phenyl)benzamide], the melting point is > 250 °C. Also, on human FXa, the “FXa inhibitory activity (in words)” value is listed as “poor IC50 values at a micromole level” and the IC50 was > 1000 nM.
For `O=C(Nc1ccccc1C(=O)Nc1ccc(N2CCOCC2=O)cc1)c1ccc(Cl)nc1` [6h-d, 6-chloro-N-(2-((4-(3-oxomorpholino)phenyl)carbamo-yl)phenyl)nicotinamide], the melting point was > 250 °C. For the same molecule, on human FXa, the IC50 was > 1000 nM.
`N#Cc1ccc(C(=O)Nc2ccccc2C(=O)Nc2ccc(-n3ccccc3=O)cc2)cc1` [6f, 2-(4-cyanobenzamido)-N-(4-(2-oxopyridin-1(2H)-yl)phenyl)benzamide]: the melting point was > 250 °C. The 50% inhibitory concentration (IC50) against human FXa is > 1000 nM.
The like results for `O=C(Nc1ccccc1C(=O)Nc1ccc(-n2ccccc2=O)cc1)c1ccc(C(F)(F)F)cc1` [6o, N-(4-(2-oxopyridin-1(2H)-yl)phenyl)-2-(4-(trifluoro-methyl)benzamido)benzamide] were, in that order, > 250 °C and > 1000 nM.
The like results for `O=C(Nc1ccc(Cl)cc1C(=O)Nc1ccc(N2CCOCC2=O)cc1)c1ccc(Cl)cc1Cl` [6k-e, 2,4-dichloro-N-(4-chloro-2-((4-(3-oxomorpholino)phe-nyl)carbamoyl)phenyl)benzamide] were, in that order, > 250 °C and 259 nM.
Regarding `Cc1cccc(C(=O)Nc2ccc(N3CCOCC3=O)cc2)c1NC(=O)c1ccc(Br)s1` [6a-g, 5-bromo-N-(2-methyl-6-((4-(3-oxomorpholino)phenyl)carbamoyl)phenyl)thiophene-2-carboxamide], the melting point was > 250 °C. Moreover, at human FXa, the “FXa inhibitory activity (in words)” value was “poor IC50 values at a micromole level” and the 50% inhibitory concentration (IC50) is > 1000 nM.
Turning to `COc1ccc(C(=O)Nc2ccccc2C(=O)Nc2ccc(-n3ccccc3=O)cc2)cc1` [6l, 2-(4-methoxybenzamido)-N-(4-(2-oxopyridin-1(2H)-yl)phenyl)benzamide], the melting point was > 250 °C. Besides, at human FXa, the midpoint of inhibition, the IC50, lay at 181 nM.
On to `O=C(Nc1ccc(Cl)cc1C(=O)Nc1ccc(N2CCOCC2=O)cc1)c1ccc(Cl)nc1` [6h-e, 6-chloro-N-(4-chloro-2-((4-(3-oxomorpholino)phenyl)carbamoyl)phenyl)nicotinamide], for which the melting point was > 250 °C. At human FXa, this molecule yielded an IC50 of 781 nM.
The like results for `Cc1ccc(NC(=O)c2ccc(Cl)nc2)c(C(=O)Nc2ccc(N3CCOCC3=O)cc2)c1` [6h-f, 6-chloro-N-(4-methyl-2-((4-(3-oxomorpholino)phenyl)carbamoyl)phenyl)nicotinamide] were, in that order, > 250 °C and 453 nM.
The like results for `COc1ccc(C(=O)Nc2ccccc2C(=O)Nc2ccc(-n3ccccc3=O)cc2)cc1[N+](=O)[O-]` [6g, 4-methoxy-3-nitro-N-(2-((4-(2-oxopyridin-1(2H)-yl)ph-enyl)carbamoyl)phenyl)benzamide] were, in that order, > 250 °C and > 1000 nM.
In the case of `O=C(Nc1ccccc1C(=O)Nc1ccc(-n2ccccc2=O)cc1)c1ccc([N+](=O)[O-])cc1` [6e, 2-(4-nitrobenzamido)-N-(4-(2-oxopyridin-1 (2H)-yl)ph-enyl)benzamide], the melting point is > 250 °C.
Take `O=C(Nc1ccccc1C(=O)Nc1ccc(-n2ccccc2=O)cc1)c1ccc(Cl)nc1` [6h, 6-chloro-N-(2-((4-(2-oxopyridin-1(2H)-yl)phenyl)carb-amoyl)phenyl)nicotinamide]: the melting point was > 250 °C. In addition, at human FXa, the half-inhibitory concentration (IC50) is 278 nM.
The like results for `COc1ccc(C(=O)Nc2ccccc2C(=O)Nc2ccc(-n3ccccc3=O)cc2)cc1OC` [6m, 3,4-dimethoxy-N-(2-((4-(2-oxopyridin-1(2H)-yl)phenyl)arbamoyl)phenyl)benzamide] were, in that order, > 250 °C and > 1000 nM.
In the case of `Cc1ccc(NC(=O)c2ccc(Cl)cc2Cl)c(C(=O)Nc2ccc(N3CCOCC3=O)cc2)c1` [6k-f, 2,4-dichloro-N-(4-methyl-2-((4-(3-oxomorpholino)phe-nyl)carbamoyl)phenyl)benzamide], the melting point was > 250 °C. The molecule further had an IC50 on human FXa of 282 nM.
Regarding `O=C(Nc1ccccc1C(=O)Nc1ccc(N2CCOCC2=O)cc1)c1ccc(Br)s1` [6a-d, 5-bromo-N-(2-((4-(3-oxomorpholino)phenyl)carbamo-yl)phenyl)thiophene-2-carboxamide], the melting point is > 250 °C. This molecule had an IC50 against human FXa of 113 nM.
For `Cc1ccc(NC(=O)c2ccc(Br)s2)c(C(=O)Nc2ccc(N3CCOCC3=O)cc2)c1` [6a-f, 5-bromo-N-(4-methyl-2-((4-(3-oxomorpholino)phenyl)carbamoyl)phenyl)thiophene-2-carboxamide], in that order: > 250 °C and 54.8 nM.
The like results for `O=C(Nc1ccccc1C(=O)Nc1ccc(-n2ccccc2=O)cc1)c1ccc(Br)o1` [6d, 5-bromo-N-(2-((4-(2-oxopyridin-1(2H)-yl)phenyl)carb-amoyl)phenyl)furan-2-carboxamide] were, in that order, > 250 °C and > 1000 nM.
The like results for `O=C(Nc1ccc(Cl)cc1C(=O)Nc1ccc(-n2ccccc2=O)cc1)c1ccc(Br)s1` [6a-a, 5-bromo-N-(4-chloro-2-((4-(2-oxopyridin-1(2H)-yl)ph-enyl)carbamoyl)phenyl)thiophene-2-carboxamide] were, in that order, > 250 °C and 121 nM.
For `Cc1ccc(NC(=O)c2ccc(Cl)nc2)c(C(=O)Nc2ccc(-n3ccccc3=O)cc2)c1` [6h-b, 6-chloro-N-(4-methyl-2-((4-(2-oxopyridin-1(2H)-yl)ph-enyl)carbamoyl)phenyl)nicotinamide], the melting point is > 250 °C. The molecule further registered an IC50 on human FXa of 212 nM.
The like results for `COc1ccc(C(=O)Nc2c(C)cccc2C(=O)Nc2ccc(N3CCOCC3=O)cc2)cc1` [6l-g, 2-(4-methoxybenzamido)-3-methyl-N-(4-(3-oxomorph-olino)phenyl)benzamide] were, in that order, > 250 °C and > 1000 nM.
The like results for `COc1ccc(C(=O)Nc2c(C)cccc2C(=O)Nc2ccc(-n3ccccc3=O)cc2)cc1` [6l-c, 2-(4-methoxybenzamido)-3-methyl-N-(4-(2-oxopyrid-in-1(2H)-yl)phenyl)benzamide] were, in that order, > 250 °C and > 1000 nM.
For `O=C(Nc1ccccc1C(=O)Nc1ccc(-n2ccccc2=O)cc1)c1ccc(Cl)o1` [6c, 5-chloro-N-(2-((4-(2-oxopyridin-1(2H)-yl)phenyl)carb-amoyl)phenyl)furan-2-carboxamide], in that order: > 250 °C and > 1000 nM.
